Key:
[1] = tested on: HCT 116 (colon), NCIH460 (lung) and U251 (glioma) cell lines; experiment: Anti-cancer screen (MTT growth inhibition); assay type: cell-based; settings: mean over HCT 116, NCIH460 and U251 cell lines, 48 hours of incubation
Procedure: Experimental drugs were screened for anti-cancer activity in three cell lines using five concentrations for each compound. The cell lines—HCT 116 (colon), NCIH460 (lung) and U251 (glioma) were maintained in DMEM containing 10% fetal bovine serum. 96-well microtiter plates are inoculated with cells in 100 μL of cell suspension (5×10^4 cells/mL) for 24 hours at 37° C., 5% CO2, 95% air and 100% relative humidity. A separate plate with these cell lines is also inoculated to determine cell viability before the addition of the compounds (T0)
Following 24-hour incubation, test compounds were added to the 96 well plates. Each plate contains one of the above cell lines and the following samples in triplicate: five different dilutions (0.01, 0.1, 1, 10 and 100 μM) of four test compounds, appropriate dilutions of a cytotoxic standard and growth medium (untreated) wells. Test compounds were dissolved in DMSO to prepare 20 mM stock solutions on the day of drug addition and serial dilutions were carried out in complete growth medium at 2× strength such that 100 μL added to wells gave final concentrations (0.01, 0.1, 1, 10 and 100 μM) in the well. SAHA was used as standard drug in these experiments.
For T0 measurement, 24 hours after seeding the cells, 20 μL of 3-(4,5-dimethyl-2-thiazolyl)-2,5-diphenyl-2H-tetrazolium (MIT) solution per well was added to the ‘T0’ plate and incubated for 3 hours at 37° C. in a CO2 incubator. The plate containing cells and test compounds was treated similarly after 48 hours of incubation. After 3 hours of MTT addition, well contents were aspirated carefully followed by addition of 150 μL DMSO per well. Plates were agitated to ensure dissolution of the formazan crystals in DMSO and absorbance was read at 570 nm (A570).
Percent growth (PG) is calculated relative to the control and zero measurement wells (T0) as follows:
(Mosmann T. Rapid colorimetric assay for cellular growth and survival: application to proliferation and cytotoxicity assays. (J. Immunol. Methods. 1983, 65 (1-2), 55-63; Anne Monks et al). Feasibility of high-flux anticancer drug screen using a diverse panel of cultured human tumor cell lines”. (JNCI, Vol. 83, No. 11, 1991, 757-766).

[2] = target: HDAC (Mouse Liver Extract); experiment: Histone Deacetylase (HDAC) Inhibition Assay using Boc-Lys (Ac)-AMC Substrate; assay type: biochemical; settings: Mouse liver enzyme, 30 minutes at 37° C.
Procedure: Histone Deacetylase (HDAC) Inhibition Assay using Boc-Lys (Ac)-AMC Substrate: Inhibition of HDAC has been implicated to modulate transcription and to induce apoptosis or differentiation in cancer cells. The fluorometric assay provides a fast and fluorescence based method that eliminates radioactivity, extractions or chromatography, as used in traditional assays. The assay is based on two steps. First, the HDAC fluorometric substrate, which comprises an acetylated lysine side chain, is incubated with a sample containing HDAC activity (Mouse Liver Extract). Deacetylation of the substrate sensitizes the substrate, in the second step; treatment with the Trypsin stop solution produces a fluorophore that can be easily analyzed using fluorescence plate reader.
Assay was done in 96-well black microplate and total volume of the assay was 100 μL. Mouse liver enzyme (10 mg/mL) was diluted 1:6 with HDAC buffer. Enzyme cocktail was made of 10 μL of diluted enzyme and 30 μL of HDAC buffer. 40 μL of enzyme cocktail followed by 10 μL of test compound (1 μM and 10 μM) or buffer (control) was added to each well. The plate was pre-incubated at 37° C. for 5 minutes. The HDAC reaction was started by adding 50 μL of HDAC substrate Boc-Lys (Ac)-AMC (Bachem AG, Switzerland). The plate was incubated at 37° C. for 30 minutes. The reaction was stopped by adding 100 μL of Trypsin stop solution and incubating at 37° C. for 15-30 minutes. Measuring the fluorescence at excitation wavelength of 360 nm and emission wavelength of 460 nm monitored the release of AMC. Buffer alone and substrate alone served as blank.

SMILES | GI50 [1] | IC50 [2]
O=C(/C=C/c1ccc(CNC23CC4CC(CC(CO)(C4)C2)C3)cc1)NO [Example 9, (2E)-3-(4-{[(3-hydroxymethyladamant-1-yl)amino]methyl}phenyl)-N-hydroxy acrylamide] | 6100 nM | 240 nM
CC12CC3CC(C)(C1)CC(NCc1ccc(/C=C/C(=O)NO)cc1)(C3)C2 [Example 5, (2E)-3-(4-{[(3,5-dimethyladamant-1-yl)amino]methyl}phenyl)-N-hydroxyacrylamide] | 1100 nM | 30 nM
O=C(/C=C/c1ccc(CNC23CC4CC(C2)CC(c2ccccc2)(C4)C3)cc1)NO [Example 8, (2E)-3-(4-{[(3-phenyladamant-1-yl)amino]methyl}phenyl)-N-hydroxyacrylamide] | 3500 nM | 440 nM
O=C(/C=C/c1ccc(CNC2C3CC4CC2CC(O)(C4)C3)cc1)NO (stereo not shown) [Example 16, (2E)-N-hydroxy-3-(4-{[(5-hydroxyadamant-2-yl)amino]methyl}phenyl)acrylamide] | 400 nM | 160 nM
CCOC12CC3CC(CC(NCc4ccc(/C=C/C(=O)NO)cc4)(C3)C1)C2 [Example 4, (2E)-N-hydroxy-3-(4-{[(3-ethoxyadamant-1-yl)amino]methyl}phenyl)acrylamide] | 3300 nM | 460 nM
O=C(/C=C/c1ccc(CNC23CC4CC(CC(O)(C4)C2)C3)cc1)NO [Example 2, (2E)-N-hydroxy-3-(4-{[(3-hydroxyadamant-1-yl)amino]methyl}phenyl)acrylamide] | 5100 nM | 250 nM
O=C(/C=C/c1ccc(CNC23CC4CC(CC(C4)C2)C3)cc1)NO [Example 1, (2E)-3-{4-[(adamant-1-ylamino)methyl]phenyl}-N-hydroxyacrylamide] | 1800 nM | 70 nM
Nc1ccccc1NC(=O)/C=C/c1ccc(CNC23CC4CC(CC(C4)C2)C3)cc1 [Example 12, (2E)-N-(2-aminophenyl)-3-{4-[(adamant-1-ylamino)methyl]phenyl}acrylamide] | 7000 nM | 4300 nM
O=C(/C=C/c1ccc(CN2CC3CC4CC(C3)CC2C4)cc1)NO [Example 6, (2E)-3-[4-(4-azatricyclo[4.3.1.1^3,8]undec-4-ylmethyl)phenyl]-N-hydroxyacrylamide] | 2800 nM | 110 nM
O=C(/C=C/c1ccc(CNC2C3CC4CC(C3)CC2C4)cc1)NO (stereo not shown) [Example 15, (2E)-3-{4-[(adamant-2-ylamino)methyl]phenyl}-N-hydroxyacrylamide] | 150 nM | 60 nM
Nc1ccccc1NC(=O)/C=C/c1ccc(CNC23CC4CC(CC(O)(C4)C2)C3)cc1 [Example 13, (2E)-N-(2-aminophenyl)-3-{4-[(3-hydroxyadamant-1-ylamino)methyl]phenyl}acrylamide] | 52000 nM | 5400 nM
COC12CC3CC(CC(NCc4ccc(/C=C/C(=O)NO)cc4)(C3)C1)C2 [Example 3, (2E)-N-hydroxy-3-(4-{[(3-methoxyadamant-1-yl)amino]methyl}phenyl)acrylamide] | 5200 nM | 260 nM
O=C(/C=C/c1ccc(CNCC23CC4CC(CC(O)(C4)C2)C3)cc1)NO [Example 11, (2E)-N-hydroxy-3-[4-({[(3-hydroxyadamant-1-yl)methyl]amino}methyl)phenyl]acrylamide] | 100 nM | 9.06 nM
O=C(/C=C/c1ccc(CNC23CC4CC(CC(Cl)(C4)C2)C3)cc1)NO [Example 7, (2E)-3-(4-{[(3-chloroadamant-1-yl)amino]methyl}phenyl)-N-hydroxyacrylamide] | 9700 nM | 40 nM

The remaining lines, values ahead:

GI50 [1] | IC50 [2] | SMILES
1260 nM |  | O=C(CCCCCCC(=O)Nc1ccccc1)NO [SAHA, suberoylanilide hydroxamic acid, reference compound]
10 nM | 0.385 nM | O=C(/C=C/c1ccc(CNCC23CC4CC(CC2C4)C3)cc1)NO [Example 32, (2E)-N-hydroxy-3-(4-{[(tricyclo[3.3.1.0^3,7]non-3-ylmethyl)amino]methyl}phenyl)acrylamide]
290 nM | 0.28 nM | O=C(C=Cc1ccc(CNCCC2C3CC4CC(C3)CC2C4)cc1)NO (stereo not shown) [Example 17, (2E)-N-hydroxy-3-[4-({[adamant-2-yl)ethyl]amino}methyl)phenyl]acrylamide]
180 nM | 1.8 nM | O=C(/C=C/c1ccc(CNC(=O)CC23CC4CC(CC(C4)C2)C3)cc1)NO [Example 23, (2E)-3-(4-{[(adamant-1-ylacetyl)amino]methyl}phenyl)-N-hydroxyacrylamide]
100 nM | 67 nM | O=C(/C=C/c1ccc(CNC(=O)C23CC4CC(CC(C4)C2)C3)cc1)NO [Example 25, N-{4-[(1E)-3-(hydroxyamino)-3-oxoprop-1-en-1-yl]benzyl}adamantane-1-carboxamide]
220 nM | 28 nM | O=C(/C=C/c1ccc(CNCCC2C3CC4CC2CC(O)(C4)C3)cc1)NO (stereo not shown) [Example 19, (2E)-N-hydroxy-3-[4-({[(5-hydroxyadamant-2-yl)ethyl]amino}methyl)phenyl]acrylamide]
200 nM | 10.4 nM | O=C(C=Cc1ccc(CNCCNC(=O)C23CC4CC(CC(C4)C2)C3)cc1)NO [Example 29, N-[2-({4-[(1E)-3-(hydroxyamino)-3-oxoprop-1-en-1-yl]benzyl}amino)ethyl]adamantine-1-carboxamide]
2100 nM | 43 nM | O=C(C=C1C2CC3CC(C2)CC1C3)NCc1ccc(/C=C/C(=O)NO)cc1 [Example 21, (2E)-N-hydroxy-3-(4-{[(tricyclo[3.3.1.1^3,7]dec-2-ylideneacetyl)amino]methyl}phenyl)acrylamide]
1200 nM | 8 nM | O=C(/C=C/c1ccc(CNC(=O)CC2C3CC4CC(C3)CC2C4)cc1)NO (stereo not shown) [Example 20, (2E)-N-hydroxy-3-(4-{[(adamantyl-2-ylacetyl)amino]methyl}phenyl)acrylamide]
4200 nM | 110 nM | O=C(/C=C/c1ccc(CNC(=O)CC2C3CC4CC2CC(O)(C4)C3)cc1)NO (stereo not shown) [Example 24, (2E)-N-hydroxy-3-[4-({[(5-hydroxyadamant-2-yl)acetyl]amino}methyl)phenyl]acrylamide]
4400 nM | 80 nM | O=C(/C=C/c1ccc(CNCC(=O)NC23CC4CC(CC(C4)C2)C3)cc1)NO [Example 28, (2E)-3-[4-({[2-(adamant-1-ylamino)-2-oxoethyl]amino}methyl)phenyl]-N-hydroxyacrylamide]
